These are literature values, as cited in patent US20240100001A1, “DENATONIUM SALT FOR USE IN PREVENTING, PREVENTING PROGRESSION AND TREATING FATTY LIVER DISEASES” (AARDVARK THERAPEUTICS INC., priority 2021, published 2024).

Where two headings read alike, the source gives them in different places.

Data set [1] relates to C57BL/6 male mice fed with the methionine- and choline-deficient (MCD) diet for 4 weeks. As to conditions: 5 mg/kg/day PO for the last 2 weeks; cited from earlier work.
Data set [2] concerns Male DIAMOND mice fed high fat sugar water diet (WDSW) for 24 weeks. Conditions: cited from earlier work.
Data set [3] relates to Male C57BL/6J mice fed high fat diet for 20 weeks. Conditions: 0.3 mg/kg/day PO for 20 weeks; cited from earlier work.
The test system of data set [4] is C57Bl6/J mice fed a MCD diet for 3 weeks. Conditions: 10 or 30 mg/kg, PO, QD for 3 weeks; cited from earlier work.
Data set [5] deals with C57BL/6 mice treated with 60% high fat diet for 36 weeks. As to conditions: 0.3-3 mg/kg/day PO for 24 days; cited from earlier work.
For data set [6], the system named is Male C57BL/6 mice fed a CDAHFD diet for 20 weeks. As to conditions: cited from earlier work.
Data set [7] has as its system Male C57BL/6 mice fed a fast food diet (FF diet) for 330 days. As to conditions: dose unknown, cited from earlier work.
In data set [8] the test system is AMLN model: C57BL/6J mice placed on AMLN diet for 30 weeks. Conditions: 0.03-0.9 mg/kg for the last 4 weeks; cited from earlier work.
Data set [9] concerns A mouse model of diet-induced NASH. As to conditions: 10 mg/kg/day PO for eight weeks; cited from earlier work.
In another data set the test system is NAFLD/NASH. Conditions: cited from earlier work; for benefit in NAFLD/NASH: agents tried so far.
For data set [10], the system named is FXR-deficient mice placed on a high-fat, high-fructose, highcholesterol diet (HFFCD) for 50 weeks. As to conditions: cited from earlier work.
Data set [11] concerns STAM model: Streptozotocin-injected 2-day old male C57BL/6 mice fed high-fat diet. As to conditions: cited from earlier work.
Data set [12] has the same test system. As to conditions: 3 mg/kg, twice weekly, cited from earlier work.
Data set [13] has as its system Male C57BL/6J mice fed with the AMLN diet for 32 weeks. Conditions: SC for 12 weeks, Semaglutide 10 nmol/kg, cited from earlier work.
The next data set deals with patients with NASH. As to conditions: cited from earlier work.
The mark [14] stands for this setting: 30 mg/kg/day PO QD for the last 8 weeks.
The mark [15] stands for this setting: treatment started after FF diet induction for 240 days.
[16] abbreviates: 60 mg/kg IV twice a week for 4 weeks, early treatment cohort.
[17] abbreviates: SC for 2 weeks (start at Week 7).
Setting [18] is: ALT-801 5 or 10 nmol/kg (both doses).

On to `CCCCCCCCCCCCCCCCCCCC(=O)N[C@H]1CC[C@@]2(C)[C@@H](C1)C[C@@H](O)[C@@H]1[C@@H]2C[C@H](O)[C@]2(C)[C@@H]([C@H](C)CCC(=O)O)CC[C@@H]12` [Aramchol], for which, in data set [1], the features of steatohepatitis entry is given as “Reduced”, the fibrosis entry is “Reduced” and the “protein expression of COL1A1 in the liver” value is reported as “decreased protein”.

Take `COc1cccc(C(=O)COc2ccc(CC3SC(=O)NC3=O)cc2)c1` (stereo not drawn) [Azemiglitazone]: in data set [2] (30 mg/kg/day PO QD for the last 8 weeks (16-24 weeks)), the ballooning entry is on record as “decreased”. In [2] (setting [14]), the “NASH CRN fibrosis score” value is “group was 0”, the “mice progressed from simple steatosis to NASH compared to the control group” value was “fewer MSDC-”, the “serum level of ALT” value was “reduced serum” and the “serum level of AST” value was “reduced serum”. Also, in data set [2] (setting [14]), the “serum level of fasting insulin” value is “reduced serum”. Moreover, in [2] (30 mg/kg/day PO QD for the last 8 weeks, trended lower), the “NAFLD Activity Score (NAS)” value is listed as “(NAS) trended”.

As for `C[C@H](NC(=O)C(=O)Nc1ccccc1C(C)(C)C)C(=O)N[C@@H](CC(=O)O)C(=O)COc1c(F)c(F)cc(F)c1F` [Emricasan], in [3], the HOMA-IR result is “Decreased”; the ballooning on histopathology result was “Improved”; the fibrosis on histopathology result is on record as “Improved”; the “fibrotic and inflammatory gene signature” value is reported as “Decreased”. Moreover, in [3], the inflammation on histopathology result is given as “Improved”, the “serum level of ALT” value was “Decreased”, the “serum level of AST” value is recorded as “Decreased” and the “serum level of cholesterol” value is on record as “Decreased”. In addition, the “serum level of glucose” value in data set [3] was “Decreased”.

Turning to `O=C(O)CCCc1cc2cc(Cl)ccc2n1S(=O)(=O)c1ccc2ncsc2c1` [Lanifibranor], in data set [4], the inflammation on histopathology result was “prevented”, the liver triglyceride levels result is listed as “decreased”, the “plasma alanine aminotransferase levels” value was “reduced plasma” and the serum triglyceride levels result is “decreased”. In addition, the steatosis on histopathology result in data set [4] is “prevented”.

Take `CC(C)c1cc(Oc2c(Cl)cc(-n3nc(C#N)c(=O)[nH]c3=O)cc2Cl)n[nH]c1=O` [Resmetirom]: in data set [5], the “fibrosis in treated livers” value is reported as “No detectable”; the “inflammation in treated livers” value is reported as “No detectable”; the insulin sensitivity entry was “Improved”; the “reduced serum level of ALT” value is reported as “(46%), free”. In data set [5], the “reduced serum level of cholesterol” value is “(67%)” and the “steatosis in treated livers” value is recorded as “No detectable”.

As to `CCO[C@@H](Cc1ccc(OCCn2c(C)ccc2-c2ccc(SC)cc2)cc1)C(=O)O` [Saroglitazar], in [6] (3 mg/kg PO for 12 weeks), the ballooning entry is “reduced or no”, the hepatic steatosis result is given as “reversal of” and the vacuolation entry is listed as “reduced or no”. Moreover, in data set [6] (3 mg/kg), the “Liver lipid (TG) accumulation attenuated” value is given as 79%; the “hepatic fibrogenic and inflammatory gene expression” value is given as “also reduced”; the “liver TNFα levels” value is “also reduced”; the “liver collagen content attenuated” value was 41%. Moreover, in [6] (3 mg/kg), the “reduced serum level of ALT” value was “(60%), AST” and the “reduced serum level of MCP1” value is on record as “MCP1 (45%)”.

Consider `Cc1cc(F)c(C(=O)Nc2cccc(-c3nncn3C(C)C)n2)cc1-n1cnc(C2CC2)c1` [Selonsertib], for which, in data set [7], the Reduced liver cholesterol is reported as 45%, the Reduced serum cholesterol is 14%, the serum bile acids result is on record as “reduced serum” and the serum cholate reduction entry is on record as “cholate (91%”. Also, in [7], the serum deoxycholate reduction entry is recorded as “(90% reduction)”. Also, in [7] (setting [15]), the fibrosis entry is reported as “reduced liver”, the insulin resistance result was “reduced liver” and the liver steatosis result is listed as “reduced liver”.

As for `O=C(O)c1cc(F)c2nc(N3[C@@H]4CC[C@H]3C[C@@H](OCc3c(-c5ccccc5OC(F)(F)F)noc3C3CC3)C4)sc2c1` [Tropifexor], in data set [8], the fibrosis result is listed as “reduced”, the “hepatic inflammation cell populations” value is recorded as “reduced mRNA”, the inflammation result was “reduced” and the “mRNA levels of fibrogenic markers” value is listed as “reduced mRNA”. Moreover, the steatosis entry in data set [8] was “reduced”.

Take `Cc1cc(OCP2(=O)OCC[C@@H](c3cccc(Cl)c3)O2)cc(C)c1Cc1ccc(O)c(C(C)C)c1` (stereo partly drawn) [VK2809]: in [9], the “NAS score mean improvement” value was “score (a 40%”; the “all subcomponents of NAS (inflammation, ballooning, and steatosis)” value is on record as “Improvements”; the “liver content of cholesterol” value was “improved liver”; the “liver content of collagen” value is “improved liver”. Also, in data set [9], the “liver content of hydroxyproline” value is given as “improved liver”, the “liver content of triglyceride” value was “improved liver”, the “liver fibrosis on histopathology” value is listed as “improved NAS” and the plasma cholesterol result was “reduced plasma”. In addition, the plasma triglycerides result in [9] is “reduced plasma”.

In the case of `CCCCCCCCCCC[C@@H](C[C@@H]1OC(=O)[C@H]1CCCCCC)OC(=O)[C@H](CC(C)C)NC=O` [orlistat], in the data set on NAFLD/NASH (in vivo), the “benefit compared to diet and exercise (weight loss alone)” value was “no significant benefit”.

Turning to `CC(=O)CCCCn1c(=O)c2c(ncn2C)n(C)c1=O` [pentoxifylline], the “benefit in NAFLD/NASH” value in the data set with NAFLD/NASH was “unsuccessfully or with only modest benefit”.

Consider `O=C1O[C@H]([C@@H](O)CO)C(O)=C1O` [vitamin C], for which, in the data set with NAFLD/NASH, the “benefit in NAFLD/NASH” value is “unsuccessfully or with only modest benefit”.

Turning to `Cc1c(C)c2c(c(C)c1O)CC[C@@](C)(CCC[C@H](C)CCC[C@H](C)CCCC(C)C)O2` [vitamin E, α-tocopherol], the “benefit in NAFLD/NASH” value in the data set with NAFLD/NASH was “unsuccessfully or with only modest benefit”.

With Aldafermin, in data set [10] (delivered by AAV at Week 16), the “hepatic expression of inflammatory and fibrotic biomarkers” value is “decreased”; the hepatocellular fibrosis result is given as “reduced”; the “serum level of ALT” value is reported as “reduced serum”; the “serum level of AST” value is recorded as “reduced serum”. In data set [10] (delivered by AAV at Week 16), the spleen weight result was “reduced liver” and the steatosis result was “not impact”. Moreover, the liver weight entry in data set [10] (delivered by adeno-associated viral vector (AAV) at Week 16) is on record as “reduced liver”.

Take Belapectin: the “expression of pathological indicators including iNOS, CD36, and a-smooth muscle actin” value in data set [11] (60 mg/kg IV twice a week for 4 weeks) was “reduced the”. For the same molecule, the fat deposition result in data set [11] (60 mg/kg IV twice a week for 4 weeks, early treatment cohort (from Week 6)) is reported as “Decreased fat”. Further, in [11] (setting [16]), the hepatocellular ballooning result is reported as “Decreased fat” and the inflammatory infiltrate entry is recorded as “Decreased fat”. In addition, the NAS score result in data set [11] (early treatment cohort (from Week 6), significant) is given as “improved NAS”. Moreover, the “NAS versus vehicle control” value in data set [11] (late treatment cohort (from Week 9), did not reach significance) is given as “improvement”.

Regarding Pegbelfermin, in data set [12] (setting [17]), the “mean grade for hepatocellular ballooning” value is given as “decreased”, the “mean grade for lobular inflammation” value is “decreased” and the “mean grade for steatosis” value is “decreased”. Also, in data set [12] (SC for 2 weeks), the “decrease of mean serum fibrosis biomarker Pro-C3” value is listed as “C3 by 44%”; the liver triglycerides entry is recorded as “improved”; the liver/body weight ratio result is reported as “(−20%), as well”; the plasma triglycerides result is on record as “improved”. In addition, in data set [12] (SC for 2 weeks), the whole blood glucose entry is recorded as “glucose (−30%),”.

For the molecule semaglutide, in data set [13] (setting [18]), the NAS overall score result was “decreased liver” and the liver weight entry is reported as “decreased liver”. Also, in [13] (ALT-801 5 or 10 nmol/kg), the “liver TG level” value is reported as “decreased liver”, the “liver content of fibrosis markers” value is recorded as “decreased liver”, the “liver total cholesterol level” value is listed as “decreased liver” and the “plasma ALT level” value was “decreased liver”. For the same molecule, the “percentage of patients with NASH resolution and no worsening of fibrosis” value in the data set with patients with NASH (0.1-mg group) is reported as 40%. Besides, in the data set with patients with NASH (0.2-mg group), the “percentage of patients with NASH resolution and no worsening of fibrosis” value is reported as 36%. Moreover, in the data set on patients with NASH (0.4-mg group), the “mean percent weight loss” value was 13%; the “percentage of patients with NASH resolution and no worsening of fibrosis” value is 59%. Besides, in the data set with patients with NASH (daily subcutaneous), the “percentage of patients with an improvement in fibrosis stage vs placebo” value is on record as “did not show a significant between-group difference”. In addition, in the data set on patients with NASH (human, in vivo), the incidence of constipation is recorded as 22%, the incidence of nausea is 42%, the incidence of vomiting is reported as 15% and the “patients with malignant neoplasms” value is listed as 1%. For the same molecule, the “patients with neoplasms (benign, malignant, or unspecified)” value in the data set with patients with NASH (human, in vivo) was 15%.
